Data on 25 molecules can be found in patent US20180148418A1, “AMIDO-SUBSTITUTED CYCLOHEXANE DERIVATIVES” (Bayer Pharma Aktiengesellschaft, priority 2015, published 2018).

SMILES strings stand for the structures. A value given as a limit tells only on which side of the number the result lay.

In this assay the target is T1, TNKS1 (Homo sapiens, UniProt O95271).
T1 construct: purchased BPS Bioscience, San Diego, USA 80579 (TNKS1 Histone Ribosylation Assay Kit)
T1 sequence (O95271 1-1327): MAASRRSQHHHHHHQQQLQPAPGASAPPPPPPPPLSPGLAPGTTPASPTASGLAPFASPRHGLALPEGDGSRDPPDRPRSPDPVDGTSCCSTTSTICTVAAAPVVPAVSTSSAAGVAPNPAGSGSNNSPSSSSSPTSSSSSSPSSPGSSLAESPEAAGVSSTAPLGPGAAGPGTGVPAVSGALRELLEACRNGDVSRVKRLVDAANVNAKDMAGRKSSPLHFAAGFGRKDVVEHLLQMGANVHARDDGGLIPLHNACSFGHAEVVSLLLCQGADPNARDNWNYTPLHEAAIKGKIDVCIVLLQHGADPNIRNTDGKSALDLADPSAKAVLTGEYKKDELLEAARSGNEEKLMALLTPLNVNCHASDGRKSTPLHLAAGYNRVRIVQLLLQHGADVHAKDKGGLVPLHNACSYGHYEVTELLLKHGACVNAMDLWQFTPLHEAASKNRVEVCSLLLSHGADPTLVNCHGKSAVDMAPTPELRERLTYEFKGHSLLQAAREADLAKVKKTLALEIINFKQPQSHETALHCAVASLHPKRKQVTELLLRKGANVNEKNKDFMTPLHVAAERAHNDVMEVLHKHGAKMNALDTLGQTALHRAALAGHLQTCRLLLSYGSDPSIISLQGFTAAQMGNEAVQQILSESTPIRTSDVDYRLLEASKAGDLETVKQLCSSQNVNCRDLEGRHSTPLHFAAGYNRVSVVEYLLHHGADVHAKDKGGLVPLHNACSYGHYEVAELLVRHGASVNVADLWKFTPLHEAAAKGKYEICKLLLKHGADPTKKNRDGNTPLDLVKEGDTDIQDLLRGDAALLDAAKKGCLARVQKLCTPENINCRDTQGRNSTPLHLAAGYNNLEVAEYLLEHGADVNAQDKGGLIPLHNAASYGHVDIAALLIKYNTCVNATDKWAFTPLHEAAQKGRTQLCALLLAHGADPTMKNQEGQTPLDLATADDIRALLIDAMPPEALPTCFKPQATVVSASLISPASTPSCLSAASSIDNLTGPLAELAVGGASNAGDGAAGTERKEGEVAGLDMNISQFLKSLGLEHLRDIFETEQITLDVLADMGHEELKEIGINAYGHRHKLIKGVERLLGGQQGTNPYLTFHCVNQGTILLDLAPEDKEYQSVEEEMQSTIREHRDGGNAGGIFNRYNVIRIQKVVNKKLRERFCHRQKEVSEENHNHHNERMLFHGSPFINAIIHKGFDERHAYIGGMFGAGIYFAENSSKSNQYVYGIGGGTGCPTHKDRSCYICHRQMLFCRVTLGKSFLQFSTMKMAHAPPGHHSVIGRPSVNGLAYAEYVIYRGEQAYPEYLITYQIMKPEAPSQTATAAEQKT
The assay is described as follows: TNKS1 Assay B (auto-parsylation, [3H]-NAD+ SPA). Type of assay: biochemical. Conditions: 6 nM TNKS1, auto-parsylation, over night at room temperature.

Broadly, the IC50 is the point on the concentration scale where inhibition reaches its midpoint. A lower IC50 goes with inhibition by little substance. `O=C(NC1CCC2(CC1)CCN(c1cc(F)c(F)cc1Cl)C2=O)c1cnn2cccnc12` (single isomer, unassigned; isomer 1) [Example 168, N-[2-(2-chloro-4,5-difluorophenyl)-1-oxo-2-azaspiro[4.5]dec-8-yl]pyrazolo[1,5-a]pyrimidine-3-carboxamide (isomer 1)]: half-maximal inhibition (IC50) required 7.3 nM. That is a single-digit nanomolar value.
The value for `CNC(=O)c1nc[nH]c1C(=O)N[C@H]1CC[C@H](C(=O)Nc2cccnc2Cl)CC1` [Example 10, N^5-{trans-4-[(2-chloropyridin-3-yl)carbamoyl]cyclohexyl}-N^4-methyl-1H-imidazole-4,5-dicarboxamide] was 250 nM.
Molecule `CNC(=O)c1nc[nH]c1C(=O)N[C@H]1CC[C@H](C(=O)Nc2ccncc2Cl)CC1` [Example 11, N^5-{trans-4-[(3-chloropyridin-4-yl)carbamoyl]cyclohexyl}-N^4-methyl-1H-imidazole-4,5-dicarboxamide] yielded an IC50 of 260 nM.
The molecule `CC1CCN(CCNC(=O)c2nc[nH]c2C(=O)N[C@H]2CC[C@H](C(=O)Nc3ccc(F)cc3Cl)CC2)CC1` [Example 12, N^5-{trans-4-[(2-chloro-4-fluorophenyl)carbamoyl]cyclohexyl}-N^4-[2-(4-methylpiperidin-1-yl)ethyl]-1H-imidazole-4,5-dicarboxamide] returned an IC50 of 3.7 nM. Compared with the last molecule, the IC50 is about 70-fold lower.
The molecule `O=C(NCCN1CCOCC1)c1nc[nH]c1C(=O)N[C@H]1CC[C@H](C(=O)Nc2ccc(F)cc2Cl)CC1` [Example 13, N^5-{trans-4-[(2-chloro-4-fluorophenyl)carbamoyl]cyclohexyl}-N^4-[2-(morpholin-4-yl)ethyl]-1H-imidazole-4,5-dicarboxamide] yielded an IC50 of 10 nM. This IC50 lies about 2.7-fold higher than the previous one.
Under `O=C(N[C@H]1CC[C@H](C(=O)Nc2ccc(F)cc2Cl)CC1)c1[nH]cnc1C(=O)N1CC2(COC2)C1` [Example 14, N-{trans-4-[(2-chloro-4-fluorophenyl)carbamoyl]cyclohexyl}-4-(2-oxa-6-azaspiro[3.3]hept-6-ylcarbonyl)-1H-imidazole-5-carboxamide] stands 63 nM.
Under `CCNC(=O)c1nc[nH]c1C(=O)N[C@H]1CC[C@H](C(=O)Nc2ccc(F)cc2Cl)CC1` [Example 15, N^5-{trans-4-[(2-chloro-4-fluorophenyl)carbamoyl]cyclohexyl}-N^4-ethyl-1H-imidazole-4,5-dicarboxamide] stands 52 nM; under `CN(C)C(=O)c1nc[nH]c1C(=O)N[C@H]1CC[C@H](C(=O)Nc2ccc(F)cc2Cl)CC1` [Example 16, N^5-{trans-4-[(2-chloro-4-fluorophenyl)carbamoyl]cyclohexyl}-N^4,N^4-dimethyl-1H-imidazole-4,5-dicarboxamide], 1100 nM.
Under `O=C(NC1CC1)c1nc[nH]c1C(=O)N[C@H]1CC[C@H](C(=O)Nc2ccc(F)cc2Cl)CC1` [Example 17, N^5-{trans-4-[(2-chloro-4-fluorophenyl)carbamoyl]cyclohexyl}-N^4-cyclopropyl-1H-imidazole-4,5-dicarboxamide] stands 84 nM.
For `O=C(NCCO)c1nc[nH]c1C(=O)N[C@H]1CC[C@H](C(=O)Nc2ccc(F)cc2Cl)CC1` [Example 18, N^5-{trans-4-[(2-chloro-4-fluorophenyl)carbamoyl]cyclohexyl}-N^4-(2-hydroxyethyl)-1H-imidazole-4,5-dicarboxamide], the IC50 amounted to 94 nM. This IC50 and that of the molecule before are within 1.5-fold of each other.
The value for `COCCNC(=O)c1nc[nH]c1C(=O)N[C@H]1CC[C@H](C(=O)Nc2ccc(F)cc2Cl)CC1` [Example 19, N^5-{trans-4-[(2-chloro-4-fluorophenyl)carbamoyl]cyclohexyl}-N^4-(2-methoxyethyl)-1H-imidazole-4,5-dicarboxamide] was 120 nM; that for `CC(C)NC(=O)c1nc[nH]c1C(=O)N[C@H]1CC[C@H](C(=O)Nc2ccc(F)cc2Cl)CC1` [Example 20, N^5-{trans-4-[(2-chloro-4-fluorophenyl)carbamoyl]cyclohexyl}-N^4-isopropyl-1H-imidazole-4,5-dicarboxamide] was 90 nM.
The value for `O=C(NCC(F)(F)F)c1nc[nH]c1C(=O)N[C@H]1CC[C@H](C(=O)Nc2ccc(F)cc2Cl)CC1` [Example 21, N^5-{trans-4-[(2-chloro-4-fluorophenyl)carbamoyl]cyclohexyl}-N^4-(2,2,2-trifluoroethyl)-1H-imidazole-4,5-dicarboxamide] was 37 nM; that for `O=C(N[C@H]1CC[C@@]2(CCN(c3ccc(F)cc3Cl)C2=O)CC1)c1[nH]cnc1C(=O)N1CCN(CC(F)(F)F)CC1` [Example 167, N-[(trans)-2-(2-chloro-4-fluorophenyl)-1-oxo-2-azaspiro[4.5]dec-8-yl]-4-{[4-(2,2,2-trifluoroethyl)piperazin-1-yl]carbonyl}-1H-imidazole-5-carboxamide] was 660 nM; that for `Cc1cc(C)n2ncc(C(=O)N[C@H]3CC[C@H](C(=O)Nc4cnccc4Cl)CC3)c2n1` [Example 169, N-{trans-4-[(4-chloropyridin-3-yl)carbamoyl]cyclohexyl}-5,7-dimethylpyrazolo[1,5-a]pyrimidine-3-carboxamide] was 35 nM.
The value for `CNC(=O)c1nc[nH]c1C(=O)N[C@H]1CC[C@H](C(=O)Nc2cc(C(C)(C)O)ccc2Cl)CC1` [Example 170, N^5-(trans-4-{[2-chloro-5-(2-hydroxypropan-2-yl)phenyl]carbamoyl}cyclohexyl)-N^4-methyl-1H-imidazole-4,5-dicarboxamide] was 2400 nM.
`CNC(=O)c1nc[nH]c1C(=O)N[C@H]1CC[C@H](C(=O)N(C)c2ccccc2)CC1` [Example 171, N^4-methyl-N^5-{trans-4-[methyl(phenyl)carbamoyl]cyclohexyl}-1H-imidazole-4,5-dicarboxamide] came in with an IC50 of 400 nM.
Molecule `CNC(=O)c1nc[nH]c1C(=O)N[C@H]1CC[C@H](C(=O)N(C)c2ccc(F)cc2)CC1` [Example 172, N^5-{trans-4-[(4-fluorophenyl)(methyl)carbamoyl]cyclohexyl}-N^4-methyl-1H-imidazole-4,5-dicarboxamide] came in with an IC50 of 980 nM.
Under `CNC(=O)c1nc[nH]c1C(=O)N[C@H]1CC[C@H](C(=O)N(C)c2ccc(F)cc2Cl)CC1` [Example 173, N^5-{trans-4-[(2-chloro-4-fluorophenyl)(methyl)carbamoyl]cyclohexyl}-N^4-methyl-1H-imidazole-4,5-dicarboxamide] stands 200 nM; under `Cc1cc(N(C)C(=O)[C@H]2CC[C@H](NC(=O)c3cnn4cccnc34)CC2)c(Cl)cc1F` [Example 176, N-{trans-4-[(2-chloro-4-fluoro-5-methylphenyl)(methyl)carbamoyl]cyclohexyl}pyrazolo[1,5-a]pyrimidine-3-carboxamide], 160 nM; under `O=C(N[C@H]1CC[C@H](C(=O)N(CC2CC2)c2ccc(F)cc2Cl)CC1)c1cnn2cccnc12` [Example 177, N-{trans-4-[(2-chloro-4-fluorophenyl)(cyclopropylmethyl)carbamoyl]cyclohexyl}pyrazolo[1,5-a]pyrimidine-3-carboxamide], 13 nM.
The value for `Cc1ccccc1N(C)C(=O)[C@H]1CC[C@H](NC(=O)c2cnn3cccnc23)CC1` [Example 178, N-{trans-4-[methyl(2-methylphenyl)carbamoyl]cyclohexyl}pyrazolo[1,5-a]pyrimidine-3-carboxamide] was 330 nM; that for `C[C@]1(C(=O)Nc2ccc(F)cc2Cl)CC[C@H](NC(=O)c2cnn3cccnc23)CC1` [Example 179, N-{trans-4-[(2-chloro-4-fluorophenyl)carbamoyl]-4-methylcyclohexyl}pyrazolo[1,5-a]pyrimidine-3-carboxamide] was 970 nM; that for `C[C@]1(C(=O)Nc2ccc(F)cc2Cl)CC[C@@H](NC(=O)c2cnn3cccnc23)CC1` [Example 180, N-{cis-4-[(2-chloro-4-fluorophenyl)carbamoyl]-4-methylcyclohexyl}pyrazolo[1,5-a]pyrimidine-3-carboxamide] was > 10000 nM.
Regarding `CNC(=O)c1[nH]cnc1C(=O)N[C@H]1CC[C@@](C)(C(=O)Nc2ccc(F)cc2Cl)CC1` [Example 181, N^4-{cis-4-[(2-chloro-4-fluorophenyl)carbamoyl]-4-methylcyclohexyl}-N^5-methyl-1H-imidazole-4,5-dicarboxamide], the IC50 was > 10000 nM.
